“Also recorded” adds a separate entry of the source.
What was measured:
[1] = target: T1, hCAR (Homo sapiens, UniProt Q14994, INS274A); experiment: hCAR-mediated CYP2B6 luciferase reporter gene activation in transfected HepG2 cells; assay type: cell-based; conditions: for activation of hCAR: concentrations under 1 μm, FIGS. 3E-3J
T1 construct: expressed in transfected cells; host or cells: HepG2
T1 sequence (Q14994 with tags, fused parts or gaps isoform Q14994-2 INS270A): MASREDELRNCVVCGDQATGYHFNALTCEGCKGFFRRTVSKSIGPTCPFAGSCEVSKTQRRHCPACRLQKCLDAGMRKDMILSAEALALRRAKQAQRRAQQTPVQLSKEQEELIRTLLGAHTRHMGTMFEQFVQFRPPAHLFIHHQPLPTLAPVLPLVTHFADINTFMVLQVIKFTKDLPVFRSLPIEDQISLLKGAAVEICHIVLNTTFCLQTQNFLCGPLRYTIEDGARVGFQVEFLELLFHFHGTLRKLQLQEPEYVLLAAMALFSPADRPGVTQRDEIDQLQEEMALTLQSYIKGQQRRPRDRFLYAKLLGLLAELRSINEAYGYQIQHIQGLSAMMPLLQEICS
T1 sequence (P19793 1-462 partner): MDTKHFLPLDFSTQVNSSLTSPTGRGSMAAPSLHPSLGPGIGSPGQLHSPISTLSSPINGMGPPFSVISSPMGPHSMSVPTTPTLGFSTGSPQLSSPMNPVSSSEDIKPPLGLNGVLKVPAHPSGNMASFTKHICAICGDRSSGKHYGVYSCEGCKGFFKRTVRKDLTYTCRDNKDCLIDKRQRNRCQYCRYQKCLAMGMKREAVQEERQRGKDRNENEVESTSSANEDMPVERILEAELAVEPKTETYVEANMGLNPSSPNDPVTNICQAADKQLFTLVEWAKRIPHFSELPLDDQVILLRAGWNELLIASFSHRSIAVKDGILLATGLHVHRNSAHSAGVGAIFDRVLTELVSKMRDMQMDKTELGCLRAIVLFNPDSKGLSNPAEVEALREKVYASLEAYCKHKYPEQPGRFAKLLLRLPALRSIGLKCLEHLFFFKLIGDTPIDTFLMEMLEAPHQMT
Protocol: (§1) Using CITCO as a model compound, the biological activity of CITCO has been evaluated for its selective activation of hCAR vs. hPXR in luciferase reporter assays, and its effects on CYP2B6 expression at both mRNA and protein levels in cultured human primary hepatocytes (See FIGS. 5A-B).
HepG2 cells were transfected with hCAR1+A expression plasmid and CYP2B6-2.2k firely luciferase reporter construct. Transfected cells were treated with vehicle control (0.1% DMSO), CITCO and DL5016 at indicated concentrations for 24 h, CYP2B6 reported activities were normalized as folds over vehicle control and are expressed as means±SD (n=3). * p<0.05; ***, p<0.001. The results for the effects of DL 5016 compared with CITCO on hCAR-mediated CYP2B6 reported gene activation are shown in FIG. 2.

[2] = target: T2, hPXR (Homo sapiens, UniProt O75469); experiment: hPXR luciferase reporter assay; assay type: cell-based; conditions: concentrations under 1 μm; FIGS. 3E-3J
T2 sequence (O75469 1-434): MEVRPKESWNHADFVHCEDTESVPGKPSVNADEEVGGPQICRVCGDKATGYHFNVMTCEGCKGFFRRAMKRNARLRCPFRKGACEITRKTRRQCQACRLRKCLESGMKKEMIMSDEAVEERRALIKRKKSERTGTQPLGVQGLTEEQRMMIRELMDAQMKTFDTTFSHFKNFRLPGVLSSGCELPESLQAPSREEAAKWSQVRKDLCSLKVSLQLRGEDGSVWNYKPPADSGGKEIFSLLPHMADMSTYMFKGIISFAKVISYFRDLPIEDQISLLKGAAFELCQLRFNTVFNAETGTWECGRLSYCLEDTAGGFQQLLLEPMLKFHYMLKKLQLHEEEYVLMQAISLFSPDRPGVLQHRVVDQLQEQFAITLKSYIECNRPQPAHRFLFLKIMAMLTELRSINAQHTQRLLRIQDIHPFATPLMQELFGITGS
Source text: as §1

[3] = tested on: CYP2B6; experiment: Induction of CYP2B6 vs CYP3A4 mRNA (RT-PCR) and protein (Western blot) in human primary hepatocytes; assay type: cell-based; conditions: for hCAR activation with preferred expression of CYP2B6 protein: FIGS. 3B-3D
Protocol: HPHs were obtained from Bioreclamation, IVT. Hepatocytes with viability over 90% were seeded at 1.5×10^6 or 7.5×10^5 cells per well in 6- or 12-well collagen-coated plates. After 4 hours of attachment, cells were overlaid with Matrigel (0.25 mg/mL) in serum-free Williams E medium to form the sandwich culture. Following incubation for 36 hours, HPH were treated with DMSO (0.1%) or hCAR activator (i.e. CITCO or DL 5016) (1 mmol/L) for 24 or 72 hours for mRNA and protein detection, respectively. In separate experiments, wild-type (WT) and CAR-knockout (KO) HepaRG cells obtained from Sigma-Aldrich were cultured in 6- or 12-well collagen-coated plates. Cells were further treated with DMSO or hCAR activator.
Total RNA from HPH and lymphoma cells was isolated with TRizol Reagent (Life Technologies) and reverse transcribed using a High Capacity cDNA Archive kit (Applied Biosystems) following the manufacturers' instructions. mRNA expression of CYP2B6, CYP3A4, was normalized against that of GAPDH. Real-time PCR assays were performed in 96-well optical plates on a StepOnePlus Real-Time PCR System with SYBR Green PCR Master Mix (Applied Biosystems). The primer sequences used for real-time PCR analyses included: CYP2B6: 50-[…]-30 and 50-CCTTCACCAAGACAAATC-CGC-30; CYP3A4: 50-[…]-30 and 50[…]-30. Fold induction of genes over control was determined as 2DDCt, where DCt is representative of the cycle threshold number difference between the target gene and GAPDH and DDCt represents the relative change in the intergroup variations.
(§2) Homogenate proteins from treated HPH, H9c2 or HepaRG cells were resolved on NuPAGE Novex Bis-Tris 4% to 12% gels (Life Technologies) and electrophoretically transferred onto immobilon-P polyvinylidene difluoride membranes. Membranes were incubated with specific antibodies against human CAR (Perseus Proteomics), cleaved caspase-3 (Cell Signaling Technology), or g-H2AX (Millipore), diluted 1:1,000, 1:1,000, and 1:400, respectively. b-Actin was used to normalize protein loading. Following incubation with horseradish peroxidase goat antimouse or anti-rabbit IgG antibody, membranes were developed using SuperSignal West Pico Chemiluminescent Substrate (Thermo Scientific). Western blot signals were quantified by densitometry using ImageJ software from the National Institutes of Health.
The human primary hepatocytes from human donor were treated with vehicle control (0.1% DMSO) or DL5016 at a concentration ranging from 0.1 μM to 1 μM for 24 h and 72 h. The expression mRNA for CYP2B6 and CYP3A4 and CYP2B6 and CYP3A4 protein were analyzed at the time point of 24 h and 72 h respectively.

[4] = tested on: SU-DHL-4 cells; experiment: Hepatocyte/lymphoma co-culture with CHOP: cancer cell death, viability, caspase-3; assay type: cell-based, human; conditions: hepatocyte/lymphoma co-culture, added to CHOP, FIGS. 10B-C
Protocol: HPH were cultured in collagen-coated 12-well plates and pretreated with vehicle control (0.1% DMSO) or hCAR activator (1 mmol/L) for 24 hours. The wells were then separated with […] polycarbonate membrane inserts (Sigma-Aldrich). A total of 0.5×10^6 SU-DHL-4 cells suspended in supplemented Williams' Medium E were transferred into the insert chamber with a final volume of 2 mL/well. In separate coculture experiments, HPH were replaced with either WT or CAR-KO HepaRG cells. The cocultures were exposed to designated concentrations of the chemotherapy drugs in CHOP in the presence or absence of hCAR activator for various time intervals, as indicated.
as §2
HPHs and H9c2 rat cardiomyocytes were seeded at 7.5×10^4 cells per well in 96-well plates. HPH were cultured for 24 hours before treatment with hCAR activator (1 mmol/L) or vehicle control (0.1% DMSO), followed by treatment with the chemotherapy drugs included in CHOP at a range of concentrations. Culture medium containing CHOP drugs and metabolites was exchanged between the cell types at pre-determined time points. A typical 3-[4,5-dimethylthiazol-2-yl]-2,5 diphenyl tetrazolium bromide (MTT) assay was carried out as described previously (21). Cell viability was expressed as the percentage of vehicle control (0.1% DMSO). Cocultured cells were assembled and treated as described above. The viability of the SU-DHL-4 cells was determined at selected time points with a Cellometer Auto T4 (Nexcelom Biosciences) using trypan blue exclusion.

[5] = Aqueous solubility; assay type: physicochemical

Compound	hCAR activation with preferred expression of CYP2B6 protein [3]	also measured
Clc1ccc(-c2nc3sccn3c2/C=N/CCc2ccc(Cl)c(Cl)c2)cc1 [DL4059, (E)-1-(6-(4-chlorophenyl)imidazo[2,1-b]thiazol-5-yl)-N-(3,4-dichlorophenethyl)methanimine]	activate hCAR resulted preferred expression of CYP2B6 protein	activation of hCAR [1]: low activity; activation of hPXR [2]: low activity
Cl.Clc1ccc(-c2nc3sccn3c2CNCCc2ccc(Cl)c(Cl)c2)cc1 [DL4072, N-((6-(4-chlorophenyl)imidazo[2,1-b]thiazol-5-yl)methyl)-2-(3,4-dichlorophenyl)ethan-l-amine hydrochloride]	activate hCAR resulted preferred expression of CYP2B6 protein	activation of hCAR [1]: activated hCAR; activation of hPXR [2]: not hPXR
Clc1ccc(-c2nc3sccn3c2CNCCc2cccc(Cl)c2)cc1 [DL4094, 2-(3-chlorophenyl)-N-((6-(4-chlorophenyl)imidazo[2,1-b]thiazol-5-yl)methyl)ethan-1-amine]	activate hCAR resulted preferred expression of CYP2B6 protein	–
Clc1ccc(CCNCc2c(-c3ccc(Cl)cc3)nc3sccn23)cc1 [DL4095, 2-(4-chlorophenyl)-N-((6-(4-chlorophenyl)imidazo[2,1-b]thiazol-5-yl)methyl)ethan-1-amine]	activate hCAR resulted preferred expression of CYP2B6 protein	–
Clc1ccc(-c2nc3sccn3c2CNCCc2ccc(Cl)c(Cl)c2)cc1 [DL4097, N-((6-(4-chlorophenyl)imidazo[2,1-b]thiazol-5-yl)methyl)-2-(3,4-dichlorophenyl)ethan-1-amine]	activate hCAR resulted preferred expression of CYP2B6 protein	–
FC(F)(F)c1ccc(CCNCc2c(-c3ccc(Cl)cc3)nc3sccn23)cc1Cl [DL4103, 2-(3-chloro-4-(trifluoromethyl)phenyl)-N-((6-(4-chlorophenyl)imidazo[2,1-b]thiazol-5-yl)methyl)ethan-1-amine]	activate hCAR resulted preferred expression of CYP2B6 protein	–
Clc1ccc(-c2nc3sccn3c2CNCCc2cccc(Br)c2)cc1 [DL4104, 2-(3-bromophenyl)-N-((6-(4-chlorophenyl)imidazo[2,1-b]thiazol-5-yl)methyl)ethan-1-amine]	activate hCAR resulted preferred expression of CYP2B6 protein	–
c1ccc2c(c1)CC(NCc1c(-c3ccc4ccccc4c3)nc3occn13)C2 [DL5016, N-((6-(naphthalen-2-yl)imidazo[2,1-b]oxazol-5-yl)methyl)-2,3-dihydro-1H-inden-2-amine]	–	hCAR activity (CYP2B6 reporter gene activation) compared with CITCO ([1]; HepG2 cells, hCAR1+A plasmid, CYP2B6-2.2k luciferase reporter, 24 h, FIG. 2): higher hCAR-inducing activity than CITCO; also recorded: more effective than CITCO; induction of CYP2B6 over CYP3A4 at mRNA and protein levels ([3]; human primary hepatocytes, 0.1-1 μM, 24 h (mRNA) and 72 h (protein), FIG. 3A): potent and selective induction of CYP2B6 over CYP3A4; effect on CHOP anticancer activity (cancer cell death) [4]: potentiates the beneficial effects of CHOP in causing cancer cell death; also recorded: clearly enhanced the regimen's anticancer activity; effect on CHOP anticancer activity (cancer cell death) ([4]; listed as DL 5016): potentiate the beneficial effects of CHOP in causing cancer cell death; aqueous solubility compared with CITCO [5]: improved aqueous solubility
Clc1ccc(-c2nc3sccn3c2CNCCc2ccc(Br)cc2)cc1 [DL 4100, 2-(4-bromophenyl)-N-((6-(4-chlorophenyl)imidazo[2,1-b]thiazol-5-yl)methyl)ethan-1-amine]	activate hCAR resulted preferred expression of CYP2B6 protein	–
Clc1ccc(-c2nc3sccn3c2CNCCc2ccc(Cl)c(Br)c2)cc1 [DL 4102, 2-(3-bromo-4-chlorophenyl)-N-((6-(4-chlorophenyl)imidazo[2,1-b]thiazol-5-yl)methyl)ethan-1-amine]	activate hCAR resulted preferred expression of CYP2B6 protein	–

Reference: US11701345B2, “Car activator agents for cyclophosphamide-based treatments of cancer” (UNIVERSITY OF MARYLAND, BALTIMORE, priority 2017, dated 2023)
